Counter-ions that a name gives are not always drawn.
Biological target: human factor Xa (FXa) (Homo sapiens, UniProt P00742)
Experiment: Determination of the factor Xa inhibition (chromogenic substrate)
Type: biochemical
Conditions: human FXa 0.5 nmol/l, 150 μmol/l Pefachrome FXa, 25° C., extinction at 405 nm
Procedure: a. 1) Determination of the Factor Xa Inhibition:
The enzymatic action of human factor Xa (FXa) is measured using the conversion of a chromogenic substrate specific for FXa. Factor Xa cleaves p-nitroaniline from the chromogenic substrate. The determinations are carried out in microtiter plates as follows:
The test substances, in various concentrations, are dissolved in DMSO and incubated for 10 minutes at 25° C. with human FXa (0.5 nmol/l dissolved in 50 mmol/l of tris buffer [C,C,C-tris(hydroxymethyl)aminomethane], 150 mmol/l of NaCl, 0.1% BSA [bovine serum albumin], pH=8.3). Pure DMSO is used as control. The chromogenic substrate (150 μmol/l Pefachrome® FXa from Pentapharm) is then added. After an incubation time of 20 minutes at 25° C., the extinction at 405 nm is determined.

Chain of human factor Xa (FXa) (P00742 235-488 limits assumed): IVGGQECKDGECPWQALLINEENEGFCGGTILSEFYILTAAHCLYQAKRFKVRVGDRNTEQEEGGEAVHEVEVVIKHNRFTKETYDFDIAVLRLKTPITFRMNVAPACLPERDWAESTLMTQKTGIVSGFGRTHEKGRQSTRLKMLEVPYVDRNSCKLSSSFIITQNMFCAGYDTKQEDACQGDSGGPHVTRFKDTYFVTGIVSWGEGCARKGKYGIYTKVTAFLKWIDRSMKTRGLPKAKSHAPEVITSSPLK
Chain of human factor Xa (FXa) (P00742 41-179 partner limits assumed): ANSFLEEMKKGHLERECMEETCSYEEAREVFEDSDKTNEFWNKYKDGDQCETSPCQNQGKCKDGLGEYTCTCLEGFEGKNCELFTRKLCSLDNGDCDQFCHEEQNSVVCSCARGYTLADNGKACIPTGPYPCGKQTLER

SMILES | IC50 [nM]
O=C(O)COCCNc1ccc(N2C[C@H](CNC(=O)c3ccc(Cl)s3)OC2=O)cc1 [Example 1, 2-({4-[(5S)-5-({[(5-Chloro-2-thienyl)carbonyl]amino}methyl)-2-oxo-1,3-oxazolidin-3-yl]phenyl}-amino)ethoxy]acetic acid hydrochloride] | 32
O=C(O)COCCN(C(=O)c1ccc(Cl)s1)c1ccc(N2C[C@H](CNC(=O)c3ccc(Cl)s3)OC2=O)cc1 [Example 3, [2-([(5-Chloro-2-thienyl)carbonyl]{4-[(5S)-5-({[(5-chloro-2-thienyl)carbonyl]amino}methyl)-2-oxo-1,3-oxazolidin-3-yl]phenyl}amino)ethoxy]acetic acid] | 66
CC(C)CNC(=O)N(CCOCC(=O)O)c1ccc(N2C[C@H](CNC(=O)c3ccc(Cl)s3)OC2=O)cc1 [Example 4, {2-[{4-[(5S)-5-({[(5-Chloro-2-thienyl)carbonyl]amino}methyl)-2-oxo-1,3-oxazolidin-3-yl]phenyl}-(isobutylcarbamoyl)amino]ethoxy}acetic acid] | 59
